# In patent US8557527B2 (HistoRx, Inc., priority 2008, dated 2013):
# How the values were obtained:
# [1] = test system: Newly Diagnosed Glioblastoma (GBM); conditions: Gefitinib+Radiation vs historical controls; cited from earlier work
# GBM = assay: Clinical outcome of RT+Gefitinib (RTOG 0211, Array 19) versus RT alone (historical, Array 8) patients stratified by AQUA biomarker level
# [2] = test system: chronic myelogenous leukemia and gastrointestinal stromal tumors; conditions: patients with chronic myelogenous leukemia and gastrointestinal stromal tumors; cited from earlier work
SMILES,survival compared to historical controls [1],"overall survival, RTOG 0211 versus historical controls (RT alone) (GBM; patients with elevated ratio of cytoplasmic to nuclear pAKT)","overall survival times, Gefitinib+RT versus RT only (GBM; patients with intermediate-to-high levels of Src expression)","clinical outcome, RT+Gefitinib versus RT alone (GBM; patients with lower levels of PTEN expression, p=0.08)",efficacy as therapy [2],toxicity as therapy [2]
COc1cc2ncnc(Nc3ccc(F)c(Cl)c3)c2cc1OCCCN1CCOCC1 [Gefitinib],survival was not significantly improved,improved overall survival,significantly worse overall survival times,trend towards improved outcome,–,–
Cc1ccc(NC(=O)c2ccc(CN3CCN(C)CC3)cc2)cc1Nc1nccc(-c2cccnc2)n1 [STI-571],–,–,–,–,highly effective,non-toxic
